Reference: US7105158B1, “Methods of administering microencapsulated materials for immune modulated diseases” (priority 1992, dated 2006)

Key:
[1] = system: B-16 cells (malignant melanoma); assay: Malignant melanoma in mice: survival; type: in vivo
Description: In vivo studies were carried out to assess the effect of the above combination therapy, both in the solution form and in the microencapsulated form in the treatment of cancer, in order to examine any possible advantages of the microencapsulated form of the drugs. The cytokine levels (eg. TNFa and IL1β were also evaluated after treatment.
Male C57BL/6 mice weighing approximately 18-20 g were anesthetized with light ether vapor and were injected subcutaneously with B-16 cells (1×10^6 cells). Their weights, tumor size and survival rate (in days) were measured daily. The tumor size was followed by measuring the long axis of the tumor daily. The study began once the tumor size reached 0.5 cm in diameter. The animals were divided into control and treatment groups. The control groups received phosphate buffered saline, blank PLGA microspheres or blank albumin microspheres. The treated groups received the following dosing schedule: Methotrexate solution (2 mg/kg or 15 mg/kg) administered s.c. daily or every three days. The M-CSF solution (10 microgram/kg or 100 microgram/kg) administered i.p. daily. The MTX microspheres (2 mg/kg or 15 mg/kg) and/or the M-CSF microspheres (10 microgram/kg or 100 microgram/kg) administered s.c. and i.p. respectively, alone or in combination therapy.

OKT3 induced IL6 release = assay: Inhibition of OKT3 induced cytokine release in blood: IL6; type: cell-based; settings: human blood, OKT3 1 μg/mL, 37° C., 24 hr
Description: (§1) OKT3 is a murine monoclonal antibody to the CD3 antigen of human T cells and is used to treat transplant rejection. The high incidence of adverse reactions associated with OKT3 is thought to be related to the induction of cytokines. The purpose of this study was to determine if microencapsulated (MC) neutralizing antibodies (NA) to human TNFa and IL1β which are readily phagocytized by macrophages can inhibit the release of TNFa, IL1β, and IL6 following OKT3 challenge in vitro.
(§2) Microcapsules were prepared using the method from Example 1 using an albumin matrix. Blood was collected from 10 healthy subjects and separated into aliquots for the following groups. • Grp 1) Blank MC • Grp 2) OKT3 1 μg/mL+Blank MC • Grp 3) TNFa NA 1 μg/mL+IL1β NA 2 μg/mL+OKT3 1 μg/mL. Aliquots were incubated at 37° C. for 24 hr. Blood was assayed for TNFa, […], and IL6 at 0, 2, 6, 24 hr by ELISA. C) Results

[2] = system: OKT3 induced TNFa release; assay: Inhibition of OKT3 induced cytokine release in blood: TNFa; type: cell-based; settings: human blood, OKT3 1 μg/mL, 37° C., 24 hr; Grp 2 OKT3+Blank MC, Grp 3 TNFa NA 1 μg/mL+IL1β NA 2 μg/mL+OKT3
Description: as §1, §2

`CN(Cc1cnc2nc(N)nc(N)c2n1)c1ccc(C(=O)N[C@@H](CCC(=O)O)C(=O)O)cc1` [MTX solution, methotrexate] showed a mean survival ([1]; 2 mg/kg s.c. every 3 days) of 12.8 days and a mean survival time ([1]; 15 mg/kg s.c. every 3 days) of 14.2 days.

In the case of “OKT3: murine monoclonal antibody to the CD3 antigen of human T cells”, the “Peak IL6” value (OKT3 induced IL6 release) is reported as 664 ± 60 pg/mL and the “Peak TNFa” value [2] is reported as 655 ± 71 pg/mL.

B1: M-CSF solution: Macrophage colony stimulating factor in solution (protein, UniProt P09603 33-554, looked up)
Macrophage colony-stimulating …: EEVSEYCSHMIGSGHLQSLQRLIDSQMETSCQITFEFVDQEQLKDPVCYLKKAFLLVQDIMEDTMRFRDNTPNAIAIVQLQELSLRLKSCFTKDYEEHDKACVRTFYETPLQLLEKVKNVFNETKNLLDKDWNIFSKNCNNSFAECSSQDVVTKPDCNCLYPKAIPSSDPASVSPHQPLAPSMAPVAGLTWEDSEGTEGSSLLPGEQPLHTVDPGSAKQRPPRSTCQSFEPPETPVVKDSTIGGSPQPRPSVGAFNPGMEDILDSAMGTNWVPEEASGEASEIPVPQGTELSPSRPGGGSMQTEPARPSNFLSASSPLPASAKGQQPADVTGTALPRVGPVRPTGQDWNHTPQKTDHPSALLRDPPEPGSPRISSLRPQGLSNPSTLSAQPQLSRSHSSGSVLPLGELEGRRSTRDRRSPAEPEGGPASEGAARPLPRFNSVPLTDTGHERQSEGSFSPQLQESVFHLLVPSVILVLLAVGGLLFYRWRRRSHQEPQRADSPLEQPEGSPLTQDDRQVELPV
B1 was tested, and the mean survival time ([1]; 10 microgram/kg i.p. daily) was 14,2 days.
